According to patent publication US10221173B2, “Chemical compounds” (AstraZeneca AB, priority 2017, dated 2019):
Values after ≈ are worked out from the molar mass of the structure shown.

Experiments:
hERG potassium channel = hERG potassium channel (Homo sapiens (Human), UniProt Q12809)
Description: The assay was conducted as follows with all reagents used at room temperature unless otherwise stated.
All compounds were acoustically dispensed in quadruplicate using a Labcyte Echo.
Calculation of results is performed using APC package within Genedata. For the routine normalization of well data with Neutral and Inhibitor control well groups as reference, GeneData Assay Analyzer uses the following equation to normalize the signal values to the desired signal range:
[formula] x is the measured raw signal value of a well is the median of the measured signal values for the Central Reference (Neutral) wells on a plate is the median of the measured signal values for the Scale Reference (Inhibitor) wells on a plate CR is the desired median normalized value for the Central Reference (Neutral) SR is the desired median normalized value for the Scale Reference (Inhibitor)

[1] = target: recombinant human Estrogen Receptor alpha ligand binding domain (ER alpha-LBD (GST)) (Homo sapiens (Human), UniProt P03372); assay: ERα binding assay (LanthaScreen TR-FRET competition)
[2] = Thermodynamic solubility (shake-flask); type: physicochemical; details: phosphate buffer pH 7.4, 24 hours
[3] = target: Estrogen Receptor (ERα) in MCF-7 cells (Homo sapiens (Human), UniProt P03372); assay: MCF-7 ER down-regulation assay (immuno-fluorescence); type: cell-based; details: for % downregulation (in brackets): maximum downregulation
Estrogen Receptor (ERα) in MCF-7 cells, sequence (P03372 whole entry): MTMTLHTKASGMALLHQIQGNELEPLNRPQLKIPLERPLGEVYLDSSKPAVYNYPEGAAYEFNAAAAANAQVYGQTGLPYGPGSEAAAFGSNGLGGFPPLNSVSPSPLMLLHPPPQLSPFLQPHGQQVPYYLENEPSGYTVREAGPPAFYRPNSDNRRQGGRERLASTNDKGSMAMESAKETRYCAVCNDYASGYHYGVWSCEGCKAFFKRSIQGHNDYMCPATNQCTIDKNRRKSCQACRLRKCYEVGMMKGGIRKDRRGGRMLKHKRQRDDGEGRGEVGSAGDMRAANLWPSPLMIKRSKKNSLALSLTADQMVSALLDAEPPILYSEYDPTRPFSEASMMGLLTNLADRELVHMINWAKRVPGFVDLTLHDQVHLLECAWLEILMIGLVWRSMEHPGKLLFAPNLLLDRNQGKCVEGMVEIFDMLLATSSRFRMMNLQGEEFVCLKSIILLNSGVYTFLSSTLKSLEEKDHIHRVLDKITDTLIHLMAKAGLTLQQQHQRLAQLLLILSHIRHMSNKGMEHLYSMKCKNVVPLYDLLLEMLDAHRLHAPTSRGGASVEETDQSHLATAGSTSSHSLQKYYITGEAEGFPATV

[4] = Human plasma protein binding (equilibrium dialysis); type: in vitro ADME
Description: The automated equilibrium dialysis assay in human plasma uses the RED (Rapid Equilibrium Dialysis) Device and sample handling. The assay generally runs over two to three days including delivery of results. After dialysis for 18 hours, plasma and buffer samples are prepared for analysis by liquid chromatography and mass spectrometry. Samples are generally tested in singlicates and quantified by LC/MSMS by using a 7-point calibration curve in plasma. The compounds are pooled together in plasma pools up to 10 compounds. Three reference compounds are used in each run, Propranolol, Metoprolol and Warfarin. Warfarin is used as a control in each pool and Propranolol and Metoprolol are placed randomly in each run. An in-house Excel macro is used for preparation of files for the robot and the mass spectrometer and is also used for the calculations of fraction unbound (fu %) in plasma.

[5] = Log D (shake flask, 1-octanol/aqueous buffer); type: physicochemical; details: for logD: 1-octanol/aqueous buffer, pH 7.4, pH 7.4
[6] = aqueous phosphate buffer, 25 °C, pH 7.4, aqueous buffer, thermodynamic from solid

hERG potassium channel, sequence (Q12809 whole entry, the tested form may be a part): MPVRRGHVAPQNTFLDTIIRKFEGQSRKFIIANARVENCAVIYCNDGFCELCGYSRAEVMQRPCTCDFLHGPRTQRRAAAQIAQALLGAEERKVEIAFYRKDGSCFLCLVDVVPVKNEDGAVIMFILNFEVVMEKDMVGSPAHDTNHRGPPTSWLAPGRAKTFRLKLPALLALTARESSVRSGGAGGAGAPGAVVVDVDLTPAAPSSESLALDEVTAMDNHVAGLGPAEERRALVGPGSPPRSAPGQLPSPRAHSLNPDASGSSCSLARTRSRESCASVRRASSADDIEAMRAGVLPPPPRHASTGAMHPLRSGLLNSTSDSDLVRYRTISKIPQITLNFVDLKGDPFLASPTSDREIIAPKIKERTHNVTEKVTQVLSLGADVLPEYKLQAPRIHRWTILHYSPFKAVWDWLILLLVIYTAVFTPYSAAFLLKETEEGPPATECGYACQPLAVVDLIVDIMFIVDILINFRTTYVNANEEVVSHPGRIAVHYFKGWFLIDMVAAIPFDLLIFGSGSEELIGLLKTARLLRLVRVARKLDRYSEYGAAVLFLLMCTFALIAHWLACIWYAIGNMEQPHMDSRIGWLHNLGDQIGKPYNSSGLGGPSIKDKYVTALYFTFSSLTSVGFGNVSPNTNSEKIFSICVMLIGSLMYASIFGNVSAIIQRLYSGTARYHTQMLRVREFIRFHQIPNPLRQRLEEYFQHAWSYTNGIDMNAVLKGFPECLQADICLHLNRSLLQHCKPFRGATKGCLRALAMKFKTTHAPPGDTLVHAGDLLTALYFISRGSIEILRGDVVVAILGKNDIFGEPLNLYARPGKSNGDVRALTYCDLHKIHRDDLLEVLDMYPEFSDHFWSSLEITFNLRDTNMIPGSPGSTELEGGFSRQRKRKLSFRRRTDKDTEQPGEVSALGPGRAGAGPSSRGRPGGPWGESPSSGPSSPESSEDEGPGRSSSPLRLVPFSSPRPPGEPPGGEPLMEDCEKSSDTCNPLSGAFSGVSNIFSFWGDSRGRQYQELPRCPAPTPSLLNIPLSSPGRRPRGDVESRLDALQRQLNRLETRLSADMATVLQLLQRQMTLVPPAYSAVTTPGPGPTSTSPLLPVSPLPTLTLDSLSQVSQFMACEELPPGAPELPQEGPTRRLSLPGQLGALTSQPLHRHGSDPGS
recombinant human Estrogen Receptor alpha ligand binding domain (ER alpha-LBD (GST)), sequence (P03372 307-554): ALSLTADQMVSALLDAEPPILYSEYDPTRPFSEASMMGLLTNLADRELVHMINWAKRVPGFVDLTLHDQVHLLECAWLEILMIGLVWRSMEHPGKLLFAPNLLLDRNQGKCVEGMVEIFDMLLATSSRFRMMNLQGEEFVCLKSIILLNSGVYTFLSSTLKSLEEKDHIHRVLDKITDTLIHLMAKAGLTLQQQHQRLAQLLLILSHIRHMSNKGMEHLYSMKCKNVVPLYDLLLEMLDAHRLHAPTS

| SMILES | IC50 (hERG potassium channel) | IC50 [1] | solubility at 24 h ([2]; 25° C.) | IC50 [3] | Human plasma protein binding (% free) [4] | LogD pH 7.4 ([5]; pH 7.4) | solubility at 24 h [2, 6] | logD [5] | % downregulation (in brackets) [3] |
| --- | --- | --- | --- | --- | --- | --- | --- | --- | --- |
| Cc1c(OCCN(C)CCCF)ncc(F)c1[C@@H]1c2[nH]c3ccccc3c2C[C@@H](C)N1C(C)CC(=O)O (single isomer, unassigned) [Example 159] | > 40 µM | 0.0009 µM | >1000 µM | 0.00018 µM | 13 % free | 1.7 | – | – | – |
| C[C@@H]1Cc2c([nH]c3ccccc23)[C@@H](c2cccc(OCCNCCCF)c2Cl)N1CC(F)(F)F [Example 25, N-(2-(2-chloro-3-((1R,3R)-3-methyl-2-(2,2,2-trifluoroethyl)-2,3,4,9-tetrahydro-1H-pyrido[3,4-b]indol-1-yl)phenoxy)ethyl)-3-fluoropropan-1-amine] | 5.2 µM | 0.00088 µM | – | 0.00025 µM | 0.080 % free | – | 19 µM (≈ 9.46 µg/mL) | 4.3 | – |
| COc1ccc(OCCNCCCF)c(C)c1[C@@H]1c2[nH]c3ccccc3c2C[C@@H](C)N1CC(F)(F)F [Example 26, 3-fluoro-N-(2-(4-methoxy-2-methyl-3-((1R,3R)-3-methyl-2-(2,2,2-trifluoroethyl)-2,3,4,9-tetrahydro-1H-pyrido[3,4-b]indol-1-yl)phenoxy)ethyl)propan-1-amine] | 4.1 µM | 0.00085 µM | – | 0.00016 µM | 0.22 % free | – | 8 µM (≈ 4.06 µg/mL) | 4.6 | – |
| COc1c(F)cc(OCCNCCCF)cc1[C@@H]1c2[nH]c3ccccc3c2C[C@@H](C)N1CC(F)(F)F [Example 27, 3-fluoro-N-(2-(3-fluoro-4-methoxy-5-((1R,3R)-3-methyl-2-(2,2,2-trifluoroethyl)-2,3,4,9-tetrahydro-1H-pyrido[3,4-b]indol-1-yl)phenoxy)ethyl)propan-1-amine] | 4.8 µM | 0.0027 µM | – | 0.0016 µM | 0.42 % free | – | 6 µM (≈ 3.07 µg/mL) | 4.2 | – |
| COc1c(F)cc(OCCNCCCF)c(F)c1[C@@H]1c2[nH]c3ccccc3c2C[C@@H](C)N1CC(F)(F)F [Example 29, N-(2-(2,5-difluoro-4-methoxy-3-((1R,3R)-3-methyl-2-(2,2,2-trifluoroethyl)-2,3,4,9-tetrahydro-1H-pyrido[3,4-b]indol-1-yl)phenoxy)ethyl)-3-fluoropropan-1-amine] | 5.1 µM | 0.002 µM | – | 0.00044 µM | <3.2 % free | – | 58 µM (≈ 30.7 µg/mL) | > 3.2 | – |
| C[C@@H]1Cc2c([nH]c3ccccc23)[C@@H](c2cc(OCCNCCCF)cc(F)c2F)N1CC(F)(F)F [Example 30, N-(2-(3,4-difluoro-5-((1R,3R)-3-methyl-2-(2,2,2-trifluoroethyl)-2,3,4,9-tetrahydro-1H-pyrido[3,4-b]indol-1-yl)phenoxy)ethyl)-3-fluoropropan-1-amine] | 2.3 µM | 0.0021 µM | – | 0.00032 µM | 0.72 % free | – | 39 µM (≈ 19.5 µg/mL) | 4.1 | – |
| C[C@@H]1Cc2c([nH]c3ccccc23)[C@@H](c2cc(F)cc(OCCNCCCF)c2F)N1CC(F)(F)F [Example 31, N-(2-(2,5-difluoro-3-((1R,3R)-3-methyl-2-(2,2,2-trifluoroethyl)-2,3,4,9-tetrahydro-1H-pyrido[3,4-b]indol-1-yl)phenoxy)ethyl)-3-fluoropropan-1-amine] | 11 µM | 0.0054 µM | – | 0.0072 µM | 0.41 % free | – | 40 µM (≈ 20 µg/mL) | 4.1 | – |
| C[C@@H]1Cc2c([nH]c3ccccc23)[C@@H](c2c(F)c(F)cc(OCCNCCCF)c2F)N1CC(F)(F)F [Example 32, 3-fluoro-N-(2-(2,4,5-trifluoro-3-((1R,3R)-3-methyl-2-(2,2,2-trifluoroethyl)-2,3,4,9-tetrahydro-1H-pyrido[3,4-b]indol-1-yl)phenoxy)ethyl)propan-1-amine] | 5.8 µM | 0.0027 µM | – | 0.00038 µM | 0.52 % free | – | 55 µM (≈ 28.5 µg/mL) | 4.1 | – |
| C[C@@H]1Cc2c([nH]c3ccccc23)[C@@H](c2cccc(OCCNCCCF)n2)N1CC(F)(F)F [Example 34, 3-fluoro-N-(2-((6-((1S,3R)-3-methyl-2-(2,2,2-trifluoroethyl)-2,3,4,9-tetrahydro-1H-pyrido[3,4-b]indol-1-yl)pyridin-2-yl)oxy)ethyl)propan-1-amine] | 3.4 µM | 0.19 µM | – | – | 2.2 % free | – | 151 µM (≈ 70.1 µg/mL) | 3.7 | — (41%) |
| COc1ncc(OCCNCCCF)cc1[C@@H]1c2[nH]c3ccccc3c2C[C@@H](C)N1CC(F)(F)F [Example 36, 3-fluoro-N-(2-((6-methoxy-5-((1R,3R)-3-methyl-2-(2,2,2-trifluoroethyl)-2,3,4,9-tetrahydro-1H-pyrido[3,4-b]indol-1-yl)pyridin-3-yl)oxy)ethyl)propan-1-amine] | 8.7 µM | 0.0026 µM | – | 0.00035 µM | 2 % free | – | 183 µM (≈ 90.5 µg/mL) | 3.5 | – |
| Cc1ncc(OCCNCCCF)cc1[C@@H]1c2[nH]c3ccccc3c2C[C@@H](C)N1CC(F)(F)F [Example 37, 3-fluoro-N-(2-((6-methyl-5-((1R,3R)-3-methyl-2-(2,2,2-trifluoroethyl)-2,3,4,9-tetrahydro-1H-pyrido[3,4-b]indol-1-yl)pyridin-3-yl)oxy)ethyl)propan-1-amine] | 3.5 µM | 0.012 µM | – | 0.035 µM | 2.3 % free | – | 434 µM (≈ 208 µg/mL) | 3.6 | – |
| COc1ncc(NCCNCCCF)cc1[C@@H]1c2[nH]c3ccccc3c2C[C@@H](C)N1CC(F)(F)F [Example 41, N1-(3-fluoropropyl)-N2-(6-methoxy-5-((1R,3R)-3-methyl-2-(2,2,2-trifluoroethyl)-2,3,4,9-tetrahydro-1H-pyrido[3,4-b]indol-1-yl)pyridin-3-yl)ethane-1,2-diamine] | 4.9 µM | 0.012 µM | – | 0.006 µM | 1.8 % free | – | 242 µM (≈ 119 µg/mL) | 2.9 | – |
| COc1ccc(NCCNCCCF)nc1[C@@H]1c2[nH]c3ccccc3c2C[C@@H](C)N1CC(F)(F)F [Example 43, N1-(3-fluoropropyl)-N2-(5-methoxy-6-((1S,3R)-3-methyl-2-(2,2,2-trifluoroethyl)-2,3,4,9-tetrahydro-1H-pyrido[3,4-b]indol-1-yl)pyridin-2-yl)ethane-1,2-diamine] | 3.1 µM | 0.082 µM | – | 0.22 µM | 2.8 % free | – | 358 µM (≈ 177 µg/mL) | 2.2 | – |
| COc1ccc(O[C@H](C)CNCCCF)cc1[C@@H]1c2[nH]c3ccccc3c2C[C@@H](C)N1CC(F)(F)CO [Example 47, 2,2-difluoro-3-((1R,3R)-1-(5-(((R)-1-((3-fluoropropyl)amino)propan-2-yl)oxy)-2-methoxyphenyl)-3-methyl-1,3,4,9-tetrahydro-2H-pyrido[3,4-b]indol-2-yl)propan-1-ol] | 3.2 µM | 0.0025 µM | – | 0.011 µM | 6.1 % free | – | 488 µM (≈ 254 µg/mL) | 2.7 | 81% |
